From patent publication US20150344540A1, “NOVEL GLP-1 RECEPTOR AGONISTS WITH CHOLESTEROL EFFLUX ACTIVITY” (NOVO NORDISK A/S, priority 2012, published 2015)

How the values were obtained:
[1] = tested on: Mouse monocyte/macrophage cell line, RAW 264.7; assay: Cholesterol efflux assay (3H-cholesterol, macrophage cell line); assay type: cell-based; conditions: RAW 264.7, 4 hrs incubation, 0.1% human serum albumin, ABCA1-mediated efflux
[2] = Physical stability assay, dynamic light scattering; assay type: physicochemical
Source text: Physical stability can be assessed by dynamic and static light scattering. In dynamic light scattering, microsecond fluctuations in scattered laser light incident on a aqueous sample is detected and transformed into diffusion coefficients (Df) of the individual species via the so-called autocorrelation function. For convenience, the diffusion coefficients are typically reported in hydrodynamic radii (Rh) assuming the sample to consist of spherical species. Furthermore, from the radii, an empirical estimate of the molecular weight is obtained. Dynamic light scattering is extremely sensitive and can resolve very small amounts of aggregated species that are undesirable in pharmaceutical formulations. The average, static intensity recorded by the detector also serves as an overall measure of the physical stability of the sample as development of larger species increase the scattered intensity drastically. In order to measure the physical stability of peptides, DLS was applied to aqueous solutions of peptides. Measurements were performed on a Wyatt (Santa Barbara, Calif.) DynaPro DLS plate reader at 25° C., and samples were kept at 37° C. between measurements. Samples were measured for up to two weeks. Measurements were performed in […] triplicate in Corning 3540 384-well microtiter plates (Corning, N.Y.) sealed with transparent plastic foil (Thermo Fischer Scientific, Waltham, Mass.) with twenty 10-second acquisitions per measurement. Autocorrelation curves were fitted with a regularization fit in Dynamics 7.1.7.16 and the resulting diffusion coefficients were transformed into hydrodynamic radii and molecular mass assuming a spherical shape (Table 2). Normalized intensities are reported as is.
Judging from the autocorrelation functions and the normalized static intensity, only minute amounts of aggregate were present at any time independent of sample concentration.

db/db mice = assay: Antidiabetic effect (acute blood glucose) in db/db mice; assay type: in vivo, male db/db (C57B1/KS db/db) mice
Experimental: The mice, 48 male db/db (C57B1/KS db/db), were purchased from Taconic, arriving at Novo Nordisk A/S Animal Unit at 6 weeks of age. The mice were housed according to standard rules in the animal unit and given free access to standard chow and tap water. The animals were kept at a room temperature of 22-24° C. and housed in groups of 5 mice, with free access to food and water, according to Animal Unit's SOP (Housing of experimental animals at Novo Nordisk A/S).
Test compound was administered as a single dose s.c.
Blood glucose was measured in a 5 μl full blood sample taken from the tip of the tail by puncturing the capillary bed with a lancet, using a 5 μl heparinised capillary tube to sample the blood. The capillary tube was then shaken into 2500 μl glucose/lactate System Solution and measured in a Biosen S_Line, autoanalyser (EKF Diagnostics GmbH, Magdeburg, Germany) according to the manufacturer's instructions. The samples were kept at room temperature until analysis. If analysis was postponed, samples were kept at 4° C. for a maximum of 24 h. The blood samples were taken at the following time points: 0, 30, 60, 120, 180 and 240 minutes and again at 24 h. After the 24 h sample, the blood was sampled from cheek or eye blood for drug exposure measurement in EDTA coated tubes. 50 μl plasma was pipetted from each animal for analysis in an in house immunoassay developed for GLP-1 analogues.

[3] = Pharmacokinetics in mini-pigs after i.v. administration; conditions: female, Göttingen, minipig, plasma, iv, 5 nmol/kg
Procedure, shortened: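 Female Göttingen mini-pigs (15-20 kg, N=3) received 5 nmol/kg i.v. via central venous catheter. Plasma levels of N-terminally intact peptide measured by LOCI immunoassay with N-terminal and mid-/C-terminal antibodies; non-compartmental analysis of individual profiles.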

CC[C@H](C)[C@H](NC(=O)[C@H](Cc1ccccc1)NC(=O)[C@H](CCC(=O)O)NC(=O)[C@H](CCCCN)NC(=O)[C@@H](NC(=O)[C@H](C)NC(=O)[C@H](CCC(=O)O)NC(=O)CNC(=O)[C@H](CCC(=O)O)NC(=O)[C@H](CC(C)C)NC(=O)[C@H](Cc1ccc(O)cc1)NC(=O)[C@H](CO)NC(=O)[C@H](CO)NC(=O)[C@@H](NC(=O)[C@H](CC(=O)O)NC(=O)[C@H](CO)NC(=O)[C@@H](NC(=O)[C@H](Cc1ccccc1)NC(=O)[C@@H](NC(=O)CNC(=O)[C@H](CCC(=O)O)NC(=O)C(C)(C)NC(=O)[C@@H](N)Cc1c[nH]cn1)[C@@H](C)O)[C@@H](C)O)C(C)C)C(C)C)C(=O)N[C@@H](C)C(=O)N[C@@H](Cc1c[nH]c2ccccc12)C(=O)N[C@@H](CC(C)C)C(=O)N[C@H](C(=O)N[C@@H](CCC(=O)O)C(=O)N[C@@H](CCCCN)C(=O)NC(C)(C)C(=O)N[C@@H](CCCCN)C(=O)N[C@@H](CCC(=O)O)C(=O)N[C@@H](Cc1ccccc1)C(=O)N[C@@H](CC(C)C)C(N)=O)C(C)C [Compound 1, [Aib8,Glu23,Val25,Glu34,Lys35,Aib36,Lys37]-GLP-1-(7-37)-peptidyl-Glu-Phe-Leu amide]
4 h Cholesterol Efflux Emax [1]: 100% | Inorm avg. ([2]; 0.9 mg/mL, 37° C., t 0 days): 1.15E+06 kcts | Rh avg. ([2]; 0.9 mg/mL, 37° C., t 0 days): 2.32 nm | Inorm avg. ([2]; 0.9 mg/mL, 37° C., t 1 days): 1.48E+06 kcts | Rh avg. ([2]; 0.9 mg/mL, 37° C., t 1 days): 2.31 nm | Inorm avg. ([2]; 0.9 mg/mL, 37° C., t 4 days): 3.76E+06 kcts | Rh avg. ([2]; 0.9 mg/mL, 37° C., t 4 days): 1.94 nm | Inorm avg. ([2]; 0.9 mg/mL, 37° C., t 8 days): 1.27E+06 kcts | Rh avg. ([2]; 0.9 mg/mL, 37° C., t 8 days): 2.26 nm | Inorm avg. ([2]; 0.9 mg/mL, 37° C., t 13 days): 2.25E+06 kcts | Rh avg. ([2]; 0.9 mg/mL, 37° C., t 13 days): 2.44 nm | oligomer size (molecular weight consistent with number of monomers) ([2]; 20 mM phosphate pH 7.5 buffer, 0.9 mg/mL or 45.5 mg/mL): approximately 4 monomers | oligomer stability by DLS ([2]; 20 mM phosphate pH 7.5 buffer, 0.9 mg/mL or 45.5 mg/mL, 37° C., up to two weeks): remained stable throughout the sample period | Inorm avg. ([2]; 45.5 mg/mL, 37° C., t 0 days): 8.33E+06 kcts | Rh avg. ([2]; 45.5 mg/mL, 37° C., t 0 days): 2.13 nm | Inorm avg. ([2]; 45.5 mg/mL, 37° C., t 1 days): 9.29E+06 kcts | Rh avg. ([2]; 45.5 mg/mL, 37° C., t 1 days): 2.27 nm | Inorm avg. ([2]; 45.5 mg/mL, 37° C., t 4 days): 1.04E+07 kcts | Rh avg. ([2]; 45.5 mg/mL, 37° C., t 4 days): 2.27 nm | Inorm avg. ([2]; 45.5 mg/mL, 37° C., t 6 days): 6.55E+06 kcts | Rh avg. ([2]; 45.5 mg/mL, 37° C., t 6 days): 2.35 nm | Inorm avg. ([2]; 45.5 mg/mL, 37° C., t 14 days): 7.18E+06 kcts | Rh avg. ([2]; 45.5 mg/mL, 37° C., t 14 days): 2.28 nm | duration of action (db/db mice; single s.c. dose): at least 24 h | acute effect on blood glucose (db/db mice; single s.c. dose 10, 30, 100 and 300 nmol/kg): lowered blood glucose in a dose-dependent manner | Plasma concentration 24 hours after dosing (db/db mice; single s.c. dose, FIG. 1B): still very high | C0 [3]: 57.2 nM | Vd [3]: 0.16 L/kg | clearance [3]: 3.3 mL/h/kg | half-life ([3]; T1/2, mini-pigs): 33.7 h | half-life ([3]; T1/2 Mean Value, Göttingen mini-pigs, N=3): 33.7 h
